Results published in patent publication US20240043476A1, “ANTI-TUMOR PEPTIDE AND USE THEREOF” (National University Corporation Hokkaido University, priority 2020, published 2024).

What was measured:
[1] = system: human prostate cancer cell line DU145; assay: Inhibition of proliferation of prostate cancer cell line DU145 (CellTiter Glo luminescence); type: cell-based; conditions: DU145 cells; for inhibitory activity against cell proliferation: cell-penetrating peptide substituted or removed, same way as Example 2; for cell proliferation (without synthetic peptide set to 100): final concentration 30 μM
Procedure: (§1) Human prostate cancer cell line DU145 was cultured in DMEM containing 10% fetal cattle serum (FCS) at 37° C. and 5% CO2 with passaging. DU145 cells were seeded into 96-well plates at 5000 cells/well, then cultured at 37° C. for 24 hours, and then further cultured for 48 hours in 10% FCS-containing DMEM that contains each of the synthesized peptides of Example 1 at a final concentration of 1 μM, 10 μM, 50 μM or 100 μM. The medium was discarded after culturing, and then 25 μL of 50-fold diluted solution of CellTiter Glo Reagent (Promega) (diluted with PBS (−) containing 0.1% NP-40) was added to each well. Next, the resulting solution was shaken at room temperature for 10 minutes, and then luminescence level was measured with a plate reader (Infinite M200, Tecan). A relative luminescence level of each synthetic peptide was calculated when the average luminescence level measured for control cells cultured in 10% FCS-containing DMEM without any synthetic peptide was set to 100, and was used as an index of cell proliferation.
The peptides listed in Table 2 below were designed and evaluated for their inhibitory activities against proliferation of DU145 cells in the same way as in Example 2. Each of the peptides 4T-2-D-1-4, 4H-2-D-1-4 and 4F-2-D-1-4 is a peptide in which the octaarginine sequence of the peptide 42-D-1-4 is substituted with an amino acid sequence of another cell-penetrating peptide, and each has, from the N-terminal side, an amino acid sequence of TAT peptide, HTLV-II-Rex or FHV coat (35-49), a linker sequence of one Gly residue, and an amino acid sequence corresponding to G45-Y51 of the PH domain. The peptides #R8(−)-2-D-1, #R8(−)-2-D-1-4 and #R8(−)-6-A-2 are peptides with the octaarginine sequence and the linker sequence removed from the peptides #2-D-1, #2-D-1-4 and #6-A-2, respectively.
The peptides listed in Table 3 below were designed and evaluated for their inhibitory activities against proliferation of DU145 cells, in the same way as in Example 2 except that the final concentrations of the synthetic peptides were set to 3 μM, 10 μM and 30 μM. The peptides #2-D-1-4-1A to #2-D-1-4-7A are peptides in which GLTIYFY (SEQ ID NO: 36) of peptide #2-D-1-4 was substituted with Ala one by one from the N-terminal side.

[2] = system: human cervical cancer cell line HeLa; assay: Inhibition of proliferation of HeLa cells; type: cell-based; conditions: same manner as Example 2
[3] = system: human liver cancer cell line Hep3B; assay: Inhibition of proliferation of Hep3B cells; type: cell-based; conditions: same manner as Example 2
[4] = system: human lung cancer cell line A549; assay: Inhibition of proliferation of A549 cells; type: cell-based; conditions: A549, same manner as Example 2
[5] = system: human glioma cell line U251; assay: Inhibition of proliferation of U251 cells; type: cell-based; conditions: U251, same manner as Example 2
[6] = system: human melanoma cell line A375; assay: Inhibition of proliferation of A375 cells; type: cell-based; conditions: A375, same manner as Example 2
Procedure: as §1, with “proliferation. […]” for “proliferation.”

[7] = system: human pancreatic cancer cell line BxPC3; assay: Inhibition of proliferation of BxPC3 cells; type: cell-based; conditions: BxPC3, same manner as Example 2
[8] = system: human breast cancer cell line T47D; assay: Inhibition of proliferation of T47D cells; type: cell-based; conditions: cultured 96 hours with peptide
Cyclin D1 (Ccnd1) = assay: Real-time PCR of Cyclin D1 gene expression in DU145 cells; type: cell-based, human; conditions: peptide 10 μM, 15 and 30 minutes
Procedure: (§2) DU145 cells, cultured in DMEM containing 10% fetal cattle serum (FCS) at 37° C. and 5% CO2 with passage, were seeded into 6-well plates at 5.0×10^5 cells/well, and then cultured at 37° C. for 24 hours. The cells were incubated for 2 hours in serum-free DMEM. Then, the synthetic peptide #2-D-1-4 (final concentration 10 μM) was added, and cells were collected 15 minutes later and 30 minutes later. Cells without addition of any synthetic peptide were prepared in the same way.
(§3) Total RNA was extracted from the cells with use of TRIzol (Thermo Fisher Scientific). cDNA was synthesized from the total RNA with use of ReverTra Ace (TOYOBO) and random hexamer primers. Real-time PCR was carried out with the following primer sets and MX3000P (Agilent Technologies, Inc.) to measure the relative gene expression levels of Cyclin D1 (Ccnd1), which is associated with cell proliferation, and Survivin, which is associated with cancer cell survival.

Survivin = assay: Real-time PCR of Survivin gene expression in DU145 cells; type: cell-based, human; conditions: peptide 10 μM, 15 and 30 minutes
Procedure: as §2, §3

[9] = target: T1, EGFR/STAP-2 interaction (EGFR-HA and GST-STAP-2) (Homo sapiens, UniProt P00533, C187G/DEL142-186); assay: GST pull-down and immunoblot of EGFR/STAP-2 interaction; type: binding; conditions: HEK293T lysate, peptide 1 μM or 50 μM, 4° C. 1 hour
T1 construct: expressed in transfected cells; host or cells: HEK293T

DU145 cells = assay: Antitumor effect in DU145 tumor-bearing model; type: in vivo, BALB/c nude mice; conditions: 2 mg/body intratumoral
Procedure: DU145 cells (5.0×10^6 cells) were injected subcutaneously into right flank of BALB/c nude mice (female, 4 weeks old). On days 14, 17 and 20 after implantation, solvent (5% DMSO, control) or the synthetic peptide #2-D-1-4 (2 mg/body) was intratumorally administered. Tumor diameters were measured with calipers every 3 days starting on day 14 after implantation, and tumor volumes (longer diameter×shorter diameter×shorter diameter/2) were calculated. The mice were euthanized on day 32 after implantation, then tumor mass were collected and their weights were measured.

RRRRNRTRRNRRRVRGGLTIYFY [#F-2-D-1-4] was tested, and the “inhibitory activity against cell proliferation” value (“inhibitory activity” below) [1] was “the same extent of inhibitory activity against cell proliferation as that of the peptide #2-D-1-4”.

In the case of “RRRRRRRRGG GLTIYAY (RRRRRRRRGGGLTIYAY) [#2-D-1-4-6A]”, the “cell proliferation (without synthetic peptide set to 100)” value [1] is reported as “approximately 50%”.

With VVELRVP [#R8(−)-6-A-2] the “inhibitory activity” value [1] was “none”.

For “RRRRRRRRGG GLAIYFY (RRRRRRRRGGGLAIYFY) [#2-D-1-4-3A]”, the “cell proliferation (without synthetic peptide set to 100)” value [1] was “approximately 50%”.

“RRRRRRRRGG GATIYFY (RRRRRRRRGGGATIYFY) [#2-D-1-4-2A]” was tested, and the “cell proliferation (without synthetic peptide set to 100)” value [1] was “approximately 50%”.

For GLTIYFY [#R8(−)-2-D-1-4], the “inhibitory activity” value [1] was “none”.

QGLTIYFYN [#R8(−)-2-D-1] was tested, and the “inhibitory activity” value [1] was “none”.

“RRRRRRRRGG GLTIYFY (RRRRRRRRGGGLTIYFY) [#2-D-1-4]” was tested, and the “activity to inhibit proliferation” value [2] was “exhibited the activity to inhibit proliferation”, the “activity to inhibit proliferation” value [3] was “exhibited the activity to inhibit proliferation” and the “activity to inhibit proliferation” value [4] was “exhibited the activity to inhibit proliferation”. The “activity to inhibit proliferation” value [5] was “exhibited the activity to inhibit proliferation”, the “activity to inhibit proliferation” value [6] was “exhibited the activity to inhibit proliferation” and the “activity to inhibit proliferation” value [7] was “exhibited the activity to inhibit proliferation”. For the same substance, the “activity to inhibit proliferation” value [8] was “exhibited the activity to inhibit proliferation”, the “gene expression level of Ccnd1” value (Cyclin D1 (Ccnd1)) was “reduced” and the “gene expression level of Survivin” value (Survivin) was “reduced”. For the same substance, the “complex between EGFR-HA and GST-STAP-2 in pull-down fraction” value [9] was “not detected”, the “final weight of the tumor mass compared to the control” value (DU145 cells; days 14, 17 and 20, day 32 after implantation) was “significant reduction” and the “tumor volume compared to the control” value (DU145 cells; days 14, 17 and 20 after implantation) was “inhibition of increase in tumor volume”.

TRRQRTRRARRNRGGLTIYFY [#H-2-D-1-4] was tested, and the “inhibitory activity” value [1] was “the same extent of inhibitory activity against cell proliferation as that of the peptide #2-D-1-4”.

With GRKKRRQRRRPPQGGLTIYFY [#T-2-D-1-4] the “inhibitory activity” value [1] was “the same extent of inhibitory activity against cell proliferation as that of the peptide #2-D-1-4”.
